Holding throughout (experiment): NCI anticancer screen, dose series, 48 h
Test [1] relates to PC-3.
The subject of test [2] is NCI/ADR-RES.
The subject of test [3] is SF-268.
The test system of test [4] is T47D.
In test [5] the test system is RXF 393.
In test [6] the test system is IGROV-1.
Test [7] deals with HCT-15.
Test [8] concerns KM12.
Test [9] concerns OVCAR-8.
The test system of test [10] is HCC 2998.
Test [11] deals with HOP-92.
Test [12] deals with SK-OV-3.
The test system of test [13] is Hs-578T.
For test [14], the system named is SNB-19.
For test [15], the system named is SK-MEL-28.
The subject of test [16] is NCI-H522.
For test [17], the system named is UO-31.
For test [18], the system named is RPMI-8226.

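48-hour exposure; five concentrations; linearly interpolated endpoints. Abbreviation: GI50, concentration required for 50% inhibition of growth.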 Active and inactive are the calls of the source. Cut-off read from the data, not from the text of the source: active = GI50 up to about 1.1 µM and inactive = higher. Bounds are passed on as bounds.

In the case of `O=C1c2ccccc2NC(=O)C2C1C(c1ccccc1)CC2(O)c1ccccc1` (configuration not stated), the GI50 in test [1] is 18 µM (inactive); in [2], 31.7 µM (inactive); in [3], > 100 µM (inactive); in [4] it was 49.7 µM (inactive); in test [5], 80.9 µM (inactive); in [6] it was 52.4 µM (inactive). Also, the GI50 in [7] is 50.5 µM; in test [8], 48 µM (inactive); in test [9], > 100 µM (inactive); in [10] it was 67 µM (inactive); in test [11], 9.89 µM (inactive); in [12], > 100 µM (inactive). Further, the GI50 in test [13] is 34.5 µM (inactive); in [14], 35.2 µM (inactive); in test [15], > 100 µM (inactive).

Turning to `C=CCn1c(=O)c2ccccc2[n+]2c(-c3cccc([N+](=O)[O-])c3)csc12`, the GI50 was 30.9 µM (inactive) in test [1]; 17.1 µM (inactive) in [2]; 48.9 µM (inactive) in test [3]; 36.1 µM (inactive) in test [16]; 19.7 µM (inactive) in test [4]; 37.2 µM (inactive) in [5]. For the same compound, the GI50 was 50.5 µM (inactive) in [6]; 45.4 µM (inactive) in [8]; 28.6 µM (inactive) in test [17]; 34.8 µM (inactive) in test [9]; > 100 µM (inactive) in test [10]; 56.2 µM (inactive) in [11]. Moreover, the GI50 in test [12] was 68.1 µM (inactive); in test [13], 24.4 µM (inactive); in test [14], > 100 µM (inactive); in [18], 30.7 µM (inactive); in test [15] it was 66.7 µM (inactive).

For `COC(=O)c1ccccc1C1CN=NC12Cc1c(C)ccc(C)c1C2=O` (configuration not stated), the GI50 in [1], in test [2], in test [3], in test [16], in test [4] and in [5] was > 100 µM (inactive) each time. The GI50 in test [6] was > 100 µM (inactive); in test [7] it was more than 100 µM; in [8], > 100 µM (inactive); in test [17] it was > 100 µM (inactive); in [9], > 100 µM (inactive); in test [10], > 100 µM (inactive). Also, the GI50 is 23.3 µM (inactive) in test [11]; > 100 µM (inactive) in test [12]; > 100 µM (inactive) in test [13]; > 100 µM (inactive) in test [14]; > 100 µM (inactive) in [15].

Regarding `NC(=S)c1cccc(C2Nc3ccccc3O2)c1` (configuration not stated), the GI50 was 51.2 µM (inactive) in test [1]; 43.9 µM (inactive) in [2]; > 100 µM (inactive) in test [3]; 71.1 µM (inactive) in test [16]; 46.7 µM (inactive) in [4]; > 100 µM (inactive) in test [5]. Besides, the GI50 is > 100 µM (inactive) in test [6]; 21.9 µM in test [7]; 37.2 µM (inactive) in test [8]; > 100 µM (inactive) in test [17]; > 100 µM (inactive) in test [9]; > 100 µM (inactive) in [11]. The GI50 in test [12] was > 100 µM (inactive); in test [13], > 100 µM (inactive); in test [14], > 100 µM (inactive); in test [18] it was < 0.01 µM (active); in test [15] it was > 100 µM (inactive).

For `Clc1cccc(Cl)c1C1SCc2nc3cc4ccccc4cc3n21` (configuration not stated), the GI50 in test [1], in test [2], in test [3], in test [4], in [5] and in test [6] was > 100 µM (inactive) in each case. For the same compound, the GI50 was more than 100 µM in test [7]; > 100 µM (inactive) in [8]; > 100 µM (inactive) in [17]; > 100 µM (inactive) in [9]; > 100 µM (inactive) in test [10]; > 100 µM (inactive) in [12]. Besides, the GI50 in [13], in [14], in [18] and in test [15] was > 100 µM (inactive) in each case.

These data come from ChEMBL document CHEMBL1201862, “PubChem BioAssay data set” (2004).
